Measurements as given in ChEMBL document CHEMBL5335868, “Exploring Scaffold Hopping for Novel 2-(Quinolin-4-yloxy)acetamides with Enhanced Antimycobacterial Activity” (ACS Med Chem Lett, 2024).
Converted amounts (≈) assume the structure as drawn.

Assays:
[1] = system: Mycobacterium tuberculosis; test: Antibacterial activity against Mycobacterium tuberculosis H37Rv assessed as bacterial growth inhibition measured after 7 days by resazurin based assay; assay type: functional; details: 168 h, time 7 day
[2] = Cytotoxicity against African green monkey Vero cells incubated for 72 hrs by NRU assay; assay type: toxicity, cell-based; details: chlorocebus sabaeus
[3] = Cytotoxicity against human HepG2 cells incubated for 72 hrs by MTT assay; assay type: toxicity, cell-based
[4] = Solubility of compound at pH 7.4 at 1 mg incubated for 4 hrs by LC analysis; assay type: physicochemical
[5] = Chemical stability of compound at pH 7.4 assessed as compound remaining at 10 uM incubated for 24 hrs by HPLC-MS/MS analysis; assay type: physicochemical; details: buffer, read-out: Stability
[6] = Permeability of compound at 10 uM measured after 5 hrs by PAMPA assay; assay type: ADME; details: read-out: permeability
[7] = Chemical stability of compound at pH 9.1 assessed as compound remaining at 10 uM incubated for 24 hrs by HPLC-MS/MS analysis; assay type: physicochemical; details: buffer, read-out: Stability
[8] = Cytotoxicity against African green monkey Vero cells incubated for 72 hrs by MTT assay; assay type: toxicity, cell-based; details: chlorocebus sabaeus
[9] = Chemical stability of compound at pH 1.2 assessed as compound remaining at 10 uM incubated for 24 hrs by HPLC-MS/MS analysis; assay type: physicochemical; details: buffer, read-out: Stability
[10] = Metabolic stability in rat liver microsomes assessed as half life at 1 mg/ml measured for 30 mins in presence of […] by HPLC-MS/MS analysis; assay type: ADME, Microsome
[11] = Solubility of compound at pH 1.2 at 1 mg incubated for 4 hrs by LC analysis; assay type: physicochemical
[12] = Cytotoxicity against human HepG2 cells incubated for 72 hrs by NRU assay; assay type: toxicity, cell-based
[13] = system: Mycobacterium tuberculosis; test: Antibacterial activity against H37Rv infected in mouse RAW264.7 cells assessed as reduction in bacterial load by measuring colony forming units per well at 2.5 uM measured for 5 days by plate counting method (Rvb ~ 1.25 log10CFU); assay type: functional; details: time 5 day
[14] = system: Mycobacterium tuberculosis; test: Antibacterial activity against H37Rv infected in mouse RAW264.7 cells assessed as reduction in bacterial load by measuring colony forming units per well at 2.5 uM measured after 5 days by plate counting method (reference value: 4.19 +/- 0.41 log10CFU); assay type: functional; details: time 5 day

Question: With `COc1ccc2nc(C)cc(OCC(=O)Nc3ccc(N4CCCCC4)cc3)c2c1` as the molecule, how does the MIC [1] read?
Answer: 0.09 µM (≈ 0.0365 µg/mL)

Question: Which MIC [1] does the source give for `CCc1cc(OCC(=O)Nc2ccc(N3CCC(c4ccc(OC(F)(F)F)cc4)CC3)cc2)c2cc(OC)ccc2n1` here?
Answer: 2.1 µM (≈ 1.22 µg/mL)

Question: Which results are given for `COc1ccc2nc(C)cc(OCC(=O)Nc3ccc(N4CCC(c5ccc(OC(F)(F)F)cc5)CC4)cc3)c2c1`?
Answer: CC50 at 72 h [2]: > 10 µM; CC50 at 72 h [3]: > 10 µM; solubility at 4 h [4]: 2190 µM (≈ 1240 µg/mL); MIC [1]: 0.02 µM (≈ 0.0113 µg/mL); remaining at 24 h, 10 µM [5]: 85.3%; Papp at 5 h, 10 µM [6]: 0.16 ×10⁻⁶ cm/s; remaining at 24 h, 10 µM [7]: 96.8%; CC50 at 72 h [8]: > 10 µM; remaining at 24 h, 10 µM [9]: 100%; half-life [10]: 21 min; solubility at 4 h [11]: 20 µM (≈ 11.3 µg/mL); CC50 at 72 h [12]: > 10 µM

Question: What does the source list for `Cc1cc(OCC(=O)Nc2ccc(N3CCC(c4ccccc4)CC3)cc2)c2cc(Br)ccc2n1`?
Answer: CC50 at 72 h [2]: > 10 µM; CC50 at 72 h [3]: > 10 µM; solubility at 4 h [4]: 2640 µM (≈ 1400 µg/mL); MIC [1]: 0.02 µM (≈ 0.0106 µg/mL); remaining at 24 h, 10 µM [5]: 93.9%; Papp at 5 h, 10 µM [6]: 0.35 ×10⁻⁶ cm/s; remaining at 24 h, 10 µM [7]: 100%; CC50 at 72 h [8]: > 10 µM; remaining at 24 h, 10 µM [9]: 100%; half-life [10]: 76.4 min; solubility at 4 h [11]: > 1880 µM; CC50 at 72 h [12]: > 10 µM

Question: For `COc1ccc2nc(C)cc(OCC(=O)Nc3ccc(N4CCC(c5ccccc5)CC4)cc3)c2c1`, which CC50 at 72 h [2] is on record?
Answer: > 10 µM

Question: And the CC50 at 72 h [3]?
Answer: > 10 µM

Question: And the solubility at 4 h [4]?
Answer: 2220 µM (≈ 1070 µg/mL)

Question: What about the MIC [1] of the same molecule?
Answer: 0.02 µM (≈ 0.00963 µg/mL)

Question: What about the remaining at 24 h, 10 µM [5] of the same molecule?
Answer: 96.3%

Question: What about the Papp at 5 h, 10 µM [6] of the same molecule?
Answer: 0.001 ×10⁻⁶ cm/s

Question: What about the remaining at 24 h, 10 µM [7] of the same molecule?
Answer: 22.6%

Question: And the CC50 at 72 h [8]?
Answer: > 10 µM

Question: What about the remaining at 24 h, 10 µM [9] of the same molecule?
Answer: 52.4%

Question: And the half-life [10]?
Answer: 7.1 min

Question: And the solubility at 4 h [11]?
Answer: 410 µM (≈ 197 µg/mL)

Question: What about the CC50 at 72 h [12] of the same molecule?
Answer: > 10 µM

Question: Which MIC [1] does the source give for `O=C(COc1cc(C(F)(F)F)nc2ccc(Br)cc12)Nc1ccc(N2CCC(c3ccccc3)CC2)cc1` here?
Answer: 34.2 µM (≈ 20 µg/mL)

Question: What does the source list for `Cc1cc(OCC(=O)Nc2ccc(N3CCC(c4ccccc4)CC3)cc2)c2cc(Cl)ccc2n1`?
Answer: CC50 at 72 h [2]: > 10 µM; CC50 at 72 h [3]: > 10 µM; solubility at 4 h [4]: 4030 µM (≈ 1960 µg/mL); MIC [1]: 0.02 µM (≈ 0.00972 µg/mL); Activity [13]: 0.48 log10CFU; remaining at 24 h, 10 µM [5]: 100%; Papp at 5 h, 10 µM [6]: 0.49 ×10⁻⁶ cm/s; remaining at 24 h, 10 µM [7]: 99%; CC50 at 72 h [8]: > 10 µM; remaining at 24 h, 10 µM [9]: 90.6%; Activity [14]: 2.46 log10CFU; half-life [10]: 177 min; solubility at 4 h [11]: > 2060 µM; CC50 at 72 h [12]: > 10 µM

Question: Which MIC [1] does the source give for `Cc1cc(OCC(=O)Nc2ccc(N3CCC(c4ccc(OC(F)(F)F)cc4)CC3)cc2)c2cc(Cl)ccc2n1` here?
Answer: 0.14 µM (≈ 0.0798 µg/mL)

Question: For `CCc1cc(OCC(=O)Nc2ccc(N3CCC(c4ccc(OC(F)(F)F)cc4)CC3)cc2)c2cc(Cl)ccc2n1`, which MIC [1] is on record?
Answer: 0.07 µM (≈ 0.0409 µg/mL)

Question: Which MIC [1] does the source give for `CCc1cc(OCC(=O)Nc2ccc(N3CCC(c4ccccc4)CC3)cc2)c2cc(OC)ccc2n1` here?
Answer: 0.08 µM (≈ 0.0396 µg/mL)

Question: Which MIC [1] does the source give for `CCc1cc(OCC(=O)Nc2ccc(N3CCC(c4ccc(OC(F)(F)F)cc4)CC3)cc2)c2cc(Br)ccc2n1` here?
Answer: 7.9 µM (≈ 4.97 µg/mL)

Question: With `Cc1cc(OCC(=O)Nc2ccc(N3CCC(c4ccc(OC(F)(F)F)cc4)CC3)cc2)c2cc(Br)ccc2n1` as the molecule, how does the MIC [1] read?
Answer: 0.06 µM (≈ 0.0369 µg/mL)

Question: With `O=C(COc1cc(C(F)(F)F)nc2ccc(Cl)cc12)Nc1ccc(N2CCC(c3ccccc3)CC2)cc1` as the molecule, how does the MIC [1] read?
Answer: 74 µM (≈ 40 µg/mL)

Question: With `CCc1cc(OCC(=O)Nc2ccc(N3CCC(c4ccccc4)CC3)cc2)c2cc(Br)ccc2n1` as the molecule, how does the MIC [1] read?
Answer: 0.07 µM (≈ 0.0381 µg/mL)

Question: With `COc1ccc2nc(C(F)(F)F)cc(OCC(=O)Nc3ccc(N4CCC(c5ccccc5)CC4)cc3)c2c1` as the molecule, how does the MIC [1] read?
Answer: 0.1 µM (≈ 0.0536 µg/mL)

Question: Which MIC [1] does the source give for `CCc1cc(OCC(=O)Nc2ccc(N3CCC(c4ccccc4)CC3)cc2)c2cc(Cl)ccc2n1` here?
Answer: 0.04 µM (≈ 0.02 µg/mL)

Question: With `NNC(=O)c1ccncc1` [ISONIAZID] as the molecule, how does the MIC [1] read?
Answer: 2.3 µM (≈ 0.315 µg/mL)

Question: With `CCc1nc2ccc(Cl)cn2c1C(=O)NCc1ccc(N2CCC(c3ccc(OC(F)(F)F)cc3)CC2)cc1` [TELACEBEC] as the molecule, how does the MIC [1] read?
Answer: 0.009 µM (≈ 0.00501 µg/mL)
